We go through 28 compounds from PubChem BioAssay AID624008 (Vanderbilt Specialized Chemistry Center, 2012).

Activity calls are given as the source filed them. How the calls were made is not given here.

This assay deals with Phospholipase D1 (Homo sapiens) + Phospholipase D1 (Homo sapiens) (UniProt Q13393+Q13393). The assay is described as follows: cellular PLD1 inhibitors, Calu-1 cells, Lib32, assay 1A (AID 624008). The following applies: percent of control, stronger effect = lower value, concentration not given here.
Sequence of Phospholipase D1 (Homo sapiens) + Phospholipase D1 (Homo sapiens) (Q13393 whole entry, looked up): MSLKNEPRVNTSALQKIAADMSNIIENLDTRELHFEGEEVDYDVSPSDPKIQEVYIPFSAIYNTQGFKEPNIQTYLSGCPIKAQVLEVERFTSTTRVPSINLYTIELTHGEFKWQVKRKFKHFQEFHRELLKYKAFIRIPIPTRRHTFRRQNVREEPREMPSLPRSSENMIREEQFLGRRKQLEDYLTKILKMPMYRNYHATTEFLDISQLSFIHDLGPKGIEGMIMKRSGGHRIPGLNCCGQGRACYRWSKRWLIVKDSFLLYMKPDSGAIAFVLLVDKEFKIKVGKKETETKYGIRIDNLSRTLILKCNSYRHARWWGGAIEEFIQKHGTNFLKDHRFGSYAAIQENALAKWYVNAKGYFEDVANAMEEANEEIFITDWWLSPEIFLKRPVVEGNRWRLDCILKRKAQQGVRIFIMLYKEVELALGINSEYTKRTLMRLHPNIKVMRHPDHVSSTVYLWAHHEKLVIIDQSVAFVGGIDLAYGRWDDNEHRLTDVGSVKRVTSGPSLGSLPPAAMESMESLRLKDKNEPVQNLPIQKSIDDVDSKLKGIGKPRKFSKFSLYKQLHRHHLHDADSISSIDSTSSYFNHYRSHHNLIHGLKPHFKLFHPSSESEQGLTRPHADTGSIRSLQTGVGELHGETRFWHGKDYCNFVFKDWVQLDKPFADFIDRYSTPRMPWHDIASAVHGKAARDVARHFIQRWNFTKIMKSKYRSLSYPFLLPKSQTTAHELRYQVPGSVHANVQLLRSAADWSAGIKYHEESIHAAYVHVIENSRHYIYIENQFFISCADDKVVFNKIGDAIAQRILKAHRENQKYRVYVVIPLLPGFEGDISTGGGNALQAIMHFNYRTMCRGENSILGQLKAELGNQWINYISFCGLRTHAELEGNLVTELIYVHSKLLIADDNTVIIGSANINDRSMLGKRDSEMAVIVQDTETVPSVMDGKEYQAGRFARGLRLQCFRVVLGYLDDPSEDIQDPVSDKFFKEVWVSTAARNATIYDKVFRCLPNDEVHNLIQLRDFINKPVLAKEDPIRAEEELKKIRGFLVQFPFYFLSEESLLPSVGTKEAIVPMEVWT
Sequence of Phospholipase D1 (Homo sapiens) + Phospholipase D1 (Homo sapiens) (Q13393 whole entry, looked up): as above
In general, remaining activity refers to the signal under treatment as a percentage of the control signal. As for `C[C@@H](CN1CCC2(CC1)C(=O)NCN2c1cccc(F)c1)NC(=O)c1ccccc1I`, the remaining activity was 91.6% (inactive).
With `O=C(NCCN1CCC2(CC1)C(=O)NCN2c1cccc(F)c1)c1cccc2c1OCO2` the figure was 102% (inactive).
For the compound `C[C@@H](CN1CCC2(CC1)C(=O)NCN2c1cccc(F)c1)NC(=O)c1ccc(Cl)cc1Cl`, the remaining activity was 71.6%.
As to `O=C(c1ccc(F)cc1)N(CCN1CCC2(CC1)C(=O)NCN2c1cccc(F)c1)C(=O)c1ccc(F)cc1`, the remaining activity is 109% (inactive).
With `O=C(NCCN1CCC2(CC1)C(=O)NCN2c1cccc(F)c1)c1ccc(Br)cc1` the figure was 98.5% (inactive); with `O=C(NCCN1CCC2(CC1)C(=O)NCN2c1cccc(F)c1)c1c(F)ccc(F)c1Cl`, 106% (inactive); with `C[C@@H](CN1CCC2(CC1)C(=O)NCN2c1cccc(F)c1)NC(=O)c1c(F)cccc1F`, 75.1%.
With `C[C@@H](CN1CCC2(CC1)C(=O)NCN2c1cccc(F)c1)NC(=O)c1ccc(F)c(F)c1`, the remaining activity is 10.1%.
With `O=C(NCCN1CCC2(CC1)C(=O)NCN2c1cccc(F)c1)c1ccc(F)cc1F` the figure was 99% (inactive); with `O=C(NCCN1CCC2(CC1)C(=O)NCN2c1cccc(F)c1)c1ccc(F)cc1`, 102% (inactive).
For `C[C@@H](CN1CCC2(CC1)C(=O)NCN2c1cccc(F)c1)NC(=O)c1ccc(Br)cc1`, the remaining activity is 10.2%.
With `O=C(NCCN1CCC2(CC1)C(=O)NCN2c1cccc(F)c1)c1cccc([N+](=O)[O-])c1`, the remaining activity is 101% (inactive).
To `O=C(NCCN1CCC2(CC1)C(=O)NCN2c1cccc(F)c1)c1ccc(Cl)cc1Cl` belongs 107% (inactive); to `C[C@@H](CN1CCC2(CC1)C(=O)NCN2c1cccc(F)c1)NC(=O)c1cccc([N+](=O)[O-])c1`, 28.6%.
Turning to `O=C(NCCN1CCC2(CC1)C(=O)NCN2c1cccc(F)c1)c1ccccc1I`, the remaining activity is 99.7% (inactive).
For the compound `O=C(NCCN1CCC2(CC1)C(=O)NCN2c1cccc(F)c1)c1ccccn1`, the remaining activity was 93.5% (inactive).
To `O=C(NCCN1CCC2(CC1)C(=O)NCN2c1cccc(F)c1)c1cccc2ccccc12` belongs 102% (inactive); to `O=C(Cc1ccc(F)cc1)NCCN1CCC2(CC1)C(=O)NCN2c1cccc(F)c1`, 99.3% (inactive); to `C[C@@H](CN1CCC2(CC1)C(=O)NCN2c1cccc(F)c1)NC(=O)Cc1ccc(F)cc1`, 102% (inactive).
As for `C[C@@H](CN1CCC2(CC1)C(=O)NCN2c1cccc(F)c1)NC(=O)c1c(F)ccc(F)c1Cl`, the remaining activity was 81.7% (inactive).
As for `O=C(NCCN1CCC2(CC1)C(=O)NCN2c1cccc(F)c1)c1cccc(C(F)(F)F)c1`, the remaining activity is 94.8% (inactive).
With `C[C@@H](CN1CCC2(CC1)C(=O)NCN2c1cccc(F)c1)NC(=O)c1ccc(F)cc1` the figure was 24%; with `C[C@@H](CN1CCC2(CC1)C(=O)NCN2c1cccc(F)c1)NC(=O)c1cccc(F)c1`, 45.7%.
To `COc1cc(C(=O)NCCN2CCC3(CC2)C(=O)NCN3c2cccc(F)c2)cc(OC)c1OC` belongs 113% (inactive).
Consider `C[C@@H](CN1CCC2(CC1)C(=O)NCN2c1cccc(F)c1)NC(=O)c1cccc(C(F)(F)F)c1`, for which the remaining activity was 82.3% (inactive).
As for `C[C@@H](CN1CCC2(CC1)C(=O)NCN2c1cccc(F)c1)NC(=O)c1cccc2ccccc12`, the remaining activity is 64.5%.
For `C[C@@H](CN1CCC2(CC1)C(=O)NCN2c1cccc(F)c1)NC(=O)c1ccc(F)cc1F`, the remaining activity was 28.8%.
As to `COc1cc(C(=O)N[C@@H](C)CN2CCC3(CC2)C(=O)NCN3c2cccc(F)c2)cc(OC)c1OC`, the remaining activity was 9.86%.
